In brackets after ≈: the same amount, converted by molar mass.
Columns and labels:
[1] = biological target: T1, E. coli DNA gyrase (Escherichia coli, UniProt P0AES4+P0AES6); assay: DNA gyrase inhibition assay (supercoiling); type: biochemical; conditions: E. coli DNA gyrase supercoiling, visual inspection of gels; read-out: DNA Gyrase IC50 (converted)
T1 construct: purchased John Innes Enterprises Ltd. (John Innes Centre, UK)
Method: Inhibition of the supercoiling activity of E. coli DNA gyrase was determined using enzymes, buffers and substrates received from John Innes Enterprises Ltd. (John Innes Centre, UK). The reactions were performed according to the manufacturer's directions, with the following modifications.
DNA supercoiling reactions were carried out in a total reaction volume of 20 μL containing 250 ng of relaxed pBR322, 35 mM Tris-HCl (pH 7.5), 24 mM KCl, 4 mM MgCl2, 2 mM dithiothreitol, 1.8 mM spermidine, 1 mM ATP, 6.5% glycerol and 100 μg/mL albumin. Compounds diluted in 10% DMSO were added to the reaction mixture to reach a final concentration of 0.5% DMSO. Enzyme was diluted to […] in a solution of 50 mM Tris-HCl (pH 7.5), 100 mM KCl, 2 mM dithiothreitol, 1 mM EDTA, and 50% glycerol. Diluted enzyme (0.2 unit) was added to each reaction.
The reactions were incubated at 37° C. for 30 min. The reactions were then cooled to 0° C., followed by addition of 3 μL of 40% glycerol, 100 mM Tris-HCl (pH 7.5), 50 mM EDTA, 0.5% SDS and 0.1% bromophenol blue. Samples were separated on 1.0% agarose gels. Gels were stained with Ethidium bromide and photographed with a Stratagene Eagle Eye II.

[2] = tested on: S. aureus ATCC13709; assay: In vitro antibacterial activity (MIC assay), broth microdilution; type: cell-based; conditions: Staphylococcus aureus, ATCC13709; read-out: S. aureus ATCC13709 MIC
Method: (§1) Minimal inhibitory concentration (MIC) has been an indicator of in vitro antibacterial activity widely used in the art. The in vitro antibacterial activity of the compounds was determined by the broth microdilution method described by the National Committee for Clinical Laboratory Standards (NCCLS) in the NCCLS Document M7-A5, Vol. 20, No. 2, “Methods for Dilution Antimicrobial Susceptibility Test for Bacteria that Grow Aerobically—Fifth Edition”, which is incorporated herein by reference.
(§2) In this method, an aliquot of test compound from an 11-point series of 2-fold serial dilutions of compounds in 100% DMSO was added to wells in microdilution plates. The test organisms were prepared by adjusting the turbidity of actively growing broth cultures so that the final concentration of test organism after addition to wells with or without compounds was approximately 5×10^5 CFU/mL.
(§3) Following inoculation of the microdilution plates, the plates were incubated at 35° C. for 16-24 h and then scored for bacterial growth. […] The amount of growth in the wells containing the test compound was compared with the amount of growth in the growth-control wells (no test compound used) in each plate, and with the amount of growth in the wells containing control compounds (such as ciprofloxacin). Compounds of the present invention were tested against several bacterial strains. The MIC values (in μg/mL) are presented in Table 1 for Gram-negative (E. coli KL-16 (GSC strain 4245); data marked as (*) was obtained with E. coli ATCC25922) and Gram-positive bacteria (S. aureus ATCC13709; S. pneumoniae ATCC49619).

[3] = tested on: S. pneumoniae ATCC49619; assay: as above; type: cell-based; conditions: Streptococcus pneumoniae, ATCC49619; read-out: S. pneumoniae ATCC49619 MIC
Method: as §1, §2, §3

[4] = tested on: E. coli KL-16 (GSC strain 4245); assay: as above; type: cell-based; conditions: Escherichia coli
Method: as §1, §2, §3

T1 sequence (P0AES4 whole entry, one chain of several): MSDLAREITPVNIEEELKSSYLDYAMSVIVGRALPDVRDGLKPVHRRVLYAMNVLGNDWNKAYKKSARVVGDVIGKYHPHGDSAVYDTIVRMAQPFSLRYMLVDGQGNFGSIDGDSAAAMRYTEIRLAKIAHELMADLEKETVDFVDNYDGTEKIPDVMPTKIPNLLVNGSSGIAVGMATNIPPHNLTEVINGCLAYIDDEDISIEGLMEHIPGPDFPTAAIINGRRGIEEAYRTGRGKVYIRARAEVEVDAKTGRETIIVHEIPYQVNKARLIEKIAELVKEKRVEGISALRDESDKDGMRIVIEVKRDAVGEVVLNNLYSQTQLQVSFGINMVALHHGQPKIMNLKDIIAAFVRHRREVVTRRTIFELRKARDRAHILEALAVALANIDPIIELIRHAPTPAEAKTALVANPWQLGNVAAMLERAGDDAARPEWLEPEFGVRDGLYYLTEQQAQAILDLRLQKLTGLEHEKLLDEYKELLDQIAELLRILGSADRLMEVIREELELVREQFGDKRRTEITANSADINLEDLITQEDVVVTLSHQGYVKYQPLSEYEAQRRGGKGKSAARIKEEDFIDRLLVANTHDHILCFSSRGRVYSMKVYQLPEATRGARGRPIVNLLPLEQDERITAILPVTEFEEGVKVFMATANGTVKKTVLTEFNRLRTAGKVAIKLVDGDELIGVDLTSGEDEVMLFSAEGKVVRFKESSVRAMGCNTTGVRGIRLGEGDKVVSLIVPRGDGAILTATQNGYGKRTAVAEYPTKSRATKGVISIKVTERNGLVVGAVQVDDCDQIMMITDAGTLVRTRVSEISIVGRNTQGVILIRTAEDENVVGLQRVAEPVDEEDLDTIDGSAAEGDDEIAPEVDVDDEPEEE

Row | SMILES | IC50 [1] [µM] | MIC [2] [µg/mL] | MIC [3] [µg/mL] | MIC [4] [µg/mL]
1 | COc1ccc2nccc(-n3cc4c(n3)CCC(NC(=O)c3ccc(C(C)=O)s3)C4)c2c1 (stereo not shown) [Example 73, 5-Acetyl-thiophene-2-carboxylic acid [2-(6-methoxy-quinolin-4-yl)-4,5,6,7-tetrahydro-2H-indazol-5-yl]-amide] | > 35.8 | 4 (≈ 8.96 µM) | 64 (≈ 143 µM) | > 128
2 | COc1ccc2nccc(-n3cc4c(n3)CCC(NC(=O)c3cc(NC(C)=O)ccc3Br)C4)c2n1 (stereo not shown) [Example 124, 5-Acetylamino-2-bromo-N-[2-(6-methoxy-[1,5]naphthyridin-4-yl)-4,5,6,7-tetrahydro-2H-indazol-5-yl]-benzamide] | – | 4 (≈ 7.47 µM) | > 128 | > 128
3 | COc1ccc2nccc(-n3ncc4c3CCC(NC(=O)c3cc5c(cc3C(F)(F)F)SCC(=O)N5)C4)c2c1 (stereo not shown) [Example 99, 3-Oxo-7-trifluoromethyl-3,4-dihydro-2H-benzo[1,4]thiazine-6-carboxylic acid [1-(6-methoxy-quinolin-4-yl)-4,5,6,7-tetrahydro-1H-indazol-5-yl]-amide] | – | 2 (≈ 3.61 µM) | > 128 | > 128
4 | COc1ccc2nccc(-n3cc4c(n3)CCC(NC(=O)c3ccc5c(c3)OCCCO5)C4)c2n1 (stereo not shown) [Example 3, 3,4-Dihydro-2H-benzo[b][1,4]dioxepine-7-carboxylic acid [2-(6-methoxy-[1,5]naphthyridin-4-yl)-4,5,6,7-tetrahydro-2H-indazol-5-yl]-amide] | – | 1 (≈ 2.12 µM) | 4 (≈ 8.48 µM) | > 128
5 | COc1ccc2nccc(-n3cc4c(n3)CCC(NC(=O)c3cc(F)c(Cl)cc3Cl)C4)c2n1 (stereo not shown) [Example 125, 2,4-Dichloro-5-fluoro-N-[2-(6-methoxy-[1,5]naphthyridin-4-yl)-4,5,6,7-tetrahydro-2H-indazol-5-yl]-benzamide] | – | 0.25 (≈ 0.514 µM) | 8 (≈ 16.4 µM) | > 128
6 | COc1ccc2nccc(-n3cc4c(n3)CCC(NC(=O)/C=C/c3cccs3)C4)c2c1 (stereo not shown) [Example 30, N-[2-(6-Methoxy-quinolin-4-yl)-4,5,6,7-tetrahydro-2H-indazol-5-yl]-3-thiophen-2-yl-acrylamide] | – | 1 (≈ 2.32 µM) | 8 (≈ 18.6 µM) | > 128
7 | COc1ccc2nccc(-n3cc4c(n3)CCC(NCC(=O)c3ccc5c(c3)NC(=O)CO5)C4)c2c1 (stereo not shown) [Example 63, 6-{2-[2-(6-Methoxy-quinolin-4-yl)-4,5,6,7-tetrahydro-2H-indazol-5-ylamino]-acetyl}-4H-benzo[1,4]oxazin-3-one] | – | 0.1 (≈ 0.207 µM) | 0.8 (≈ 1.65 µM) | 6 (≈ 12.4 µM)
8 | COc1ccc2nccc(-n3cc4c(n3)CC(NC(=O)c3ccc5c(c3)NC(=O)CS5)CC4)c2c1 (stereo not shown) [Example 27, 3-Oxo-3,4-dihydro-2H-benzo[1,4]thiazine-6-carboxylic acid [2-(6-methoxy-quinolin-4-yl)-4,5,6,7-tetrahydro-2H-indazol-6-yl]-amide] | – | 0.125 (≈ 0.257 µM) | 4 (≈ 8.24 µM) | 4 (≈ 8.24 µM)
9 | COc1ccc2nccc(-n3cc4c(n3)CCC(NC(=O)c3ccc5c(c3)OCCO5)C4)c2c1 (stereo not shown) [Example 16, 2,3-Dihydro-benzo[1,4]dioxine-6-carboxylic acid [2-(6-methoxy-quinolin-4-yl)-4,5,6,7-tetrahydro-2H-indazol-5-yl]-amide] | – | 2 (≈ 4.38 µM) | 8 (≈ 17.5 µM) | > 128
10 | COc1ccc2nccc(-n3cc4c(n3)CCC(NC(=O)/C=C/c3cc([N+](=O)[O-])ccc3Cl)C4)c2n1 (stereo not shown) [Example 94, 3-(2-Chloro-5-nitro-phenyl)-N-[2-(6-methoxy-[1,5]naphthyridin-4-yl)-4,5,6,7-tetrahydro-2H-indazol-5-yl]-acrylamide] | – | 2 (≈ 3.96 µM) | > 128 | > 128
11 | COc1ccc2nccc(-n3cc4c(n3)CCC(NCc3cc5c(cc3F)OCCO5)C4)c2c1 (stereo not shown) [Example 51, (7-Fluoro-2,3-dihydro-benzo[1,4]dioxin-6-ylmethyl)-[2-(6-methoxy-quinolin-4-yl)-4,5,6,7-tetrahydro-2H-indazol-5-yl]-amine] | – | 1 (≈ 2.17 µM) | 1 (≈ 2.17 µM) | > 128
